Consider nine compounds from PubChem BioAssay AID1259407 (Chemical Carcinogenesis Research Information System (CCRIS), 2018).

The source made the active and inactive calls. No rule for the calls is given here.

The subject of this data set is CCRIS mutagenicity, Ames/micronucleus/aberration tests. As to the kind of experiment: CCRIS mutagenicity studies.
[1] abbreviates: Test System: AMES SALMONELLA TYPHIMURIUM, Strain/Indicator: TA98, Metabolic Activation: NONE, Method: PREINCUBATION
The mark [2] stands for this setting: Test System: AMES SALMONELLA TYPHIMURIUM, Strain/Indicator: TA100, Metabolic Activation: NONE, Method: PREINCUBATION
The mark [3] stands for this setting: Test System: AMES SALMONELLA TYPHIMURIUM, Strain/Indicator: TA102, Metabolic Activation: NONE, Method: PREINCUBATION
Setting [4] is: Test System: AMES SALMONELLA TYPHIMURIUM, Strain/Indicator: TA98, Metabolic Activation: NONE, Method: STANDARD PLATE.
The mark [5] stands for this setting: Test System: AMES SALMONELLA TYPHIMURIUM, Strain/Indicator: TA100, Metabolic Activation: NONE, Method: STANDARD PLATE.

For the compound `Cc1cccc2nc3c(ccc4ccccc43)cc12`, the mutagenic call was “active; positive” (Test System: AMES SALMONELLA TYPHIMURIUM, Strain/Indicator: TA97A, Metabolic Activation: NONE, Method: PREINCUBATION); “inactive; negative” under setting [1]; “inactive; negative” under setting [2]; “active; positive” under setting [3].
For `O=[N+]([O-])CBr`, the mutagenic call (End Point: In vitro micronucleus, Test System: Human lymphoblastoid TK6 cells, Metabolic Activation: None) is “inactive; negative”; the mutagenic call (End Point: In vitro micronucleus, Test System: Human peripheral blood lymphocytes, Metabolic Activation: None) is “inactive; negative”; the mutagenic call (Test System: Ames Salmonella typhimurium, Strain/Indicator: RSJ100, Metabolic Activation: None, Method: Standard plate) was “inactive; negative”; the mutagenic call (Test System: Ames Salmonella typhimurium, Strain/Indicator: RSJ100, Metabolic Activation: Rat, Liver, S-9, Aroclor, Method: Standard plate) is “inactive; negative”; the mutagenic call (Test System: Ames Salmonella typhimurium, Strain/Indicator: TA98, Metabolic Activation: None, Method: Standard plate) was “inactive; negative”; the mutagenic call (Test System: Ames Salmonella typhimurium, Strain/Indicator: TA98, Metabolic Activation: Rat, Liver, S-9, Aroclor, Method: Standard plate) was “inactive; negative”. Also, the mutagenic call (Test System: Ames Salmonella typhimurium, Strain/Indicator: TA100, Metabolic Activation: None, Method: Standard plate) is “active; positive”; the mutagenic call (Test System: Ames Salmonella typhimurium, Strain/Indicator: TA100, Metabolic Activation: Rat, Liver, S-9, Aroclor, Method: Standard plate) was “active; positive”; the mutagenic call (Test System: Ames Salmonella typhimurium, Strain/Indicator: TA104, Metabolic Activation: None, Method: Standard plate) was “inactive; negative”; the mutagenic call (Test System: Ames Salmonella typhimurium, Strain/Indicator: TPT100, Metabolic Activation: None, Method: Standard plate) is “inactive; negative”.
Turning to `[O-][n+]1cc2ncccc2cn1`, the mutagenic call was “inactive; negative” under setting [1]; “inactive; negative” (Test System: AMES SALMONELLA TYPHIMURIUM, Strain/Indicator: TA98, Metabolic Activation: RAT, LIVER, S-9, PCB, Method: PREINCUBATION); “inactive; negative” under setting [2]; “inactive; negative” (Test System: AMES SALMONELLA TYPHIMURIUM, Strain/Indicator: TA100, Metabolic Activation: RAT, LIVER, S-9, PCB, Method: PREINCUBATION).
Consider `CCN=C=S`, for which the mutagenic call was “inactive; negative” (Test System: AMES SALMONELLA TYPHIMURIUM, Strain/Indicator: TA97, Metabolic Activation: NONE, Method: PREINCUBATION); “inactive; negative” (Test System: AMES SALMONELLA TYPHIMURIUM, Strain/Indicator: TA97, Metabolic Activation: RAT, LIVER, S-9, AROCLOR 1254, Method: PREINCUBATION); “inactive; negative” under setting [3]; “inactive; negative” (Test System: AMES SALMONELLA TYPHIMURIUM, Strain/Indicator: TA102, Metabolic Activation: RAT, LIVER, S-9, AROCLOR 1254, Method: PREINCUBATION).
Turning to `Cc1ccc(NC(=O)c2csc([N+](=O)[O-])c2)cc1`, the mutagenic call reads like this: under setting [4], “active; positive”; under setting [5], “active; positive”.
For `O=C(O)CCc1c[nH]c2ccccc12`, under setting [2], the mutagenic call is “inactive; negative”.
Regarding `CN(Cc1cccc(Br)c1)N=O`, the mutagenic call by setting is: (Test System: AMES SALMONELLA TYPHIMURIUM, Strain/Indicator: TA1535, Metabolic Activation: HAMSTER, LIVER, S-9, AROCLOR 1254, Method: STANDARD PLATE) “active; positive”; (Test System: AMES SALMONELLA TYPHIMURIUM, Strain/Indicator: TA1535, Metabolic Activation: NONE, Method: STANDARD PLATE) “inactive; negative”.
On to `Cc1ccc(N=Nc2c(O)ccc3ccccc23)cc1C`, for which the mutagenic call is, setting by setting: under setting [4], “inactive; negative”; (Test System: AMES SALMONELLA TYPHIMURIUM, Strain/Indicator: TA98, Metabolic Activation: RAT, LIVER, S-9, Method: STANDARD PLATE) “inactive; negative”; under setting [5], “inactive; negative”; (Test System: AMES SALMONELLA TYPHIMURIUM, Strain/Indicator: TA100, Metabolic Activation: RAT, LIVER, S-9, Method: STANDARD PLATE) “inactive; negative”.
In the case of `O=C(CBr)Nc1ccccc1`, the mutagenic call was “inactive; negative” (Test System: AMES SALMONELLA TYPHIMURIUM, Strain/Indicator: TA100, Metabolic Activation: MOUSE, LIVER, S-9, AROCLOR 1254, Method: STANDARD PLATE) and “inactive; negative” under setting [5].
